Assay [1] addresses human JAK1 (a.a. 837-1142) (Homo sapiens, UniProt P23458). Briefly: In vitro JAK kinase assay (HTRF), JAK1. In kind it is biochemical. The conditions noted are these: 1 mM ATP. A general note: In TR-FRET formats the signal depends on donor and acceptor labels being close together.
Experimental: (§1) The catalytic activity of JAK1, JAK2 or JAK3 was assayed by measuring the phosphorylation of a biotinylated peptide. The phosphorylated peptide was detected by homogenous time resolved fluorescence (HTRF). […] Reactions are carried out at room temperature for 1 hour and then stopped with 20 μL 45 mM EDTA, 300 nM SA-APC, 6 nM Eu-Py20 in assay buffer (Perkin Elmer, Boston, Mass.). Binding to the Europium labeled antibody takes place for 40 minutes and HTRF signal was measured on a Fusion plate reader (Perkin Elmer, Boston, Mass.).
Assay [2] addresses human JAK2 (a.a. 828-1132) (Homo sapiens (Human), UniProt O60674). Briefly: In vitro JAK kinase assay (HTRF), JAK2, for JAK2/JAK1 ratio. The assay is classed as biochemical. Conditions: IC50 ratio, 1 mM ATP.
Experimental: as §1

In US11103510B2, “JAK1 pathway inhibitors for the treatment of cytokine-related disorders” (Incyte Corporation, priority 2018, dated 2021) one finds IC50 and JAK2/JAK1 data, which are given here for 21 molecules.

Structures are written as SMILES.

human JAK2 (a.a. 828-1132), sequence (O60674 828-1132): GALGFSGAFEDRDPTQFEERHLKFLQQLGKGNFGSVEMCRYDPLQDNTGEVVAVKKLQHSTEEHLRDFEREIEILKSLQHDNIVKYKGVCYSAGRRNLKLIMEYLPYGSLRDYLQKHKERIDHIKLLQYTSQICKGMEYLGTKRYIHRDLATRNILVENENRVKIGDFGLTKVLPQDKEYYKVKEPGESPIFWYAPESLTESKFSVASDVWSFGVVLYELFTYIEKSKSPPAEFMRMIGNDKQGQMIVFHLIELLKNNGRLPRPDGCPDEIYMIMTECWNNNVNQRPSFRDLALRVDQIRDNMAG

For orientation: IC50 means the concentration that inhibits the measured activity by half. A higher IC50 goes with lower potency. For the molecule `CCNCc1cc(O[C@H]2CC[C@@H](N3CC(CC#N)(n4cc(-c5ncnc6[nH]ccc56)cn4)C3)CC2)nc(C(F)(F)F)c1` [Compound 19, {1-(cis-4-{[4-[(ethylamino)methyl]-6-(trifluoromethyl)pyridin-2-yl]oxy}cyclohexyl)-3-[4-(7H-pyrrolo[2,3-d]pyrimidin-4-yl)-1H-pyrazol-1-yl]azetidin-3-yl}acetonitrile], the half-inhibitory concentration (IC50) in assay [1] is less than 10 nM. Moreover, in assay [2], the JAK2/JAK1 was greater than 10.
The molecule `N#CCC1(n2cc(-c3ncnc4[nH]ccc34)cn2)CN([C@H]2CC[C@@H](Oc3cc(CN4CC[C@@H](O)C4)cc(C(F)(F)F)n3)CC2)C1` [Compound 21, {1-(cis-4-{[4-{[(3R)-3-hydroxypyrrolidin-1-yl]methyl}-6-(trifluoromethyl)pyridin-2-yl]oxy}cyclohexyl)-3-[4-(7H-pyrrolo[2,3-d]pyrimidin-4-yl)-1H-pyrazol-1-yl]azetidin-3-yl}acetonitrile] had a 50% inhibitory concentration (IC50) in assay [1] of less than 10 nM. The JAK2/JAK1 in assay [2] is recorded as greater than 10.
`C[C@H](NC(=O)c1cc(F)c(N2CC(CC#N)(n3cc(-c4ncnc5[nH]ccc45)cn3)C2)cc1F)C(F)(F)F` [Compound 16, 4-{3-(cyanomethyl)-3-[4-(7H-pyrrolo[2,3-d]pyrimidin-4-yl)-1H-pyrazol-1-yl]azetidin-1-yl}-2,5-difluoro-N-[(1S)-2,2,2-trifluoro-1-methylethyl]benzamide] gave an IC50 in assay [1] of less than 10 nM. The JAK2/JAK1 in assay [2] is on record as greater than 10.
As for `N#CC[C@]1(n2cc(-c3ncnc4[nH]ccc34)cn2)C[C@H](N2CCC(Oc3cc(CN4CCC[C@@H]4CO)cc(C(F)(F)F)n3)CC2)C1` [Compound 13, {trans-3-(4-{[4-{[(2R)-2-(hydroxymethyl)pyrrolidin-1-yl]methyl}-6-(trifluoromethyl)pyridin-2-yl]oxy}piperidin-1-yl)-1-[4-(7H-pyrrolo[2,3-d]pyrimidin-4-yl)-1H-pyrazol-1-yl]cyclobutyl}acetonitrile], the IC50 in assay [1] was less than 10 nM. Further, the JAK2/JAK1 in assay [2] is greater than 10.
For the molecule `N#CCC1(n2cc(-c3ncnc4[nH]ccc34)cn2)CN([C@H]2CC[C@@H](Oc3cc(CCO)nc(C(F)(F)F)n3)CC2)C1` [Compound 18, {1-(cis-4-{[6-(2-hydroxyethyl)-2-(trifluoromethyl)pyrimidin-4-yl]oxy}cyclohexyl)-3-[4-(7H-pyrrolo[2,3-d]pyrimidin-4-yl)-1H-pyrazol-1-yl]azetidin-3-yl}acetonitrile], in assay [1], the IC50 was less than 10 nM. Further, in assay [2], the JAK2/JAK1 was greater than 10.
`N#CCC(CN1CCN(C(=O)c2ccc(C#N)cc2F)CC1)n1ccc(-c2ncnc3[nH]ccc23)c1` (stereo not drawn) [Compound 9, 4-[(4-{3-cyano-2-[3-(7H-pyrrolo[2,3-d]pyrimidin-4-yl)-1H-pyrrol-1-yl]propyl}piperazin-1-yl)carbonyl]-3-fluorobenzonitrile] displayed a half-maximal inhibitory concentration (IC50) in assay [1] of less than 10 nM. The JAK2/JAK1 in assay [2] is reported as greater than 10.
In turn, `N#CCC1(n2cc(-c3ncnc4[nH]ccc34)cn2)CN(C2CCN(C(=O)c3ccnc(C(F)(F)F)n3)CC2)C1` [Compound 3, [3-[4-(7H-pyrrolo[2,3-d]pyrimidin-4-yl)-1H-pyrazol-1-yl]-1-(1-{[2-(trifluoromethyl)pyrimidin-4-yl]carbonyl}piperidin-4-yl)azetidin-3-yl]acetonitrile] came in with a concentration for half-maximal inhibition (IC50) in assay [1] of less than 10 nM. For the same molecule, the JAK2/JAK1 in assay [2] is greater than 10.
The like results for `CC(C)(O)c1cc(O[C@H]2CC[C@@H](N3CC(CC#N)(n4cc(-c5ncnc6[nH]ccc56)cn4)C3)CC2)nc(C(F)(F)F)c1` [Compound 20, {1-(cis-4-{[4-(1-hydroxy-1-methylethyl)-6-(trifluoromethyl)pyridin-2-yl]oxy}cyclohexyl)-3-[4-(7H-pyrrolo[2,3-d]pyrimidin-4-yl)-1H-pyrazol-1-yl]azetidin-3-yl}acetonitrile] were, in that order, less than 10 nM and greater than 10.
Molecule `N#CCC(C1CCN(c2nc3cccnc3o2)C1)n1cc(-c2ncnc3[nH]ccc23)cn1` (stereo not drawn) [Compound 7, 3-(1-[1,3]oxazolo[5,4-b]pyridin-2-ylpyrrolidin-3-yl)-3-[4-(7H-pyrrolo[2,3-d]pyrimidin-4-yl)-1H-pyrazol-1-yl]propanenitrile] had an IC50 in assay [1] of less than 10 nM. The JAK2/JAK1 in assay [2] is on record as greater than 10.
For the molecule `N#CCC1(n2cc(-c3ncnc4[nH]ccc34)cn2)CN(C2CCN(C(=O)Nc3ccc(F)cc3C(F)(F)F)CC2)C1` [Compound 2, 4-{3-(Cyanomethyl)-3-[4-(7H-pyrrolo[2,3-d]pyrimidin-4-yl)-1H-pyrazol-1-yl]azetidin-1-yl}-N-[4-fluoro-2-(trifluoromethyl)phenyl]piperidine-1-carboxamide], in assay [1], the IC50 is less than 10 nM. Further, in assay [2], the JAK2/JAK1 is greater than 10.
The molecule `N#CC[C@]1(n2cc(-c3ncnc4[nH]ccc34)cn2)C[C@H](N2CCN(C(=O)c3ccnc(C(F)(F)F)n3)CC2)C1` [Compound 10, [trans-1-[4-(7H-pyrrolo[2,3-d]pyrimidin-4-yl)-1H-pyrazol-1-yl]-3-(4-{[2-(trifluoromethyl)pyrimidin-4-yl]carbonyl}piperazin-1-yl)cyclobutyl]acetonitrile] registered a concentration for half-maximal inhibition (IC50) in assay [1] of less than 10 nM. The JAK2/JAK1 in assay [2] is on record as greater than 10.
On to `N#CCC(C1CCN(c2cccc(Cl)n2)C1)n1cc(-c2ncnc3[nH]ccc23)cn1` (single isomer, unassigned) [Compound 6, 3-[1-(6-chloropyridin-2-yl)pyrrolidin-3-yl]-3-[4-(7H-pyrrolo[2,3-d]pyrimidin-4-yl)-1H-pyrazol-1-yl]propanenitrile], for which the IC50 in assay [1] was less than 10 nM. Besides, in assay [2], the JAK2/JAK1 is listed as greater than 10.
On to `C[C@@H](O)CNCc1cc(OC2CCN([C@H]3C[C@](CC#N)(n4cc(-c5ncnc6[nH]ccc56)cn4)C3)CC2)nc(C(F)(F)F)c1` [Compound 24, {trans-3-(4-{[4-({[(2R)-2-hydroxypropyl]amino}methyl)-6-(trifluoromethyl)pyridin-2-yl]oxy}piperidin-1-yl)-1-[4-(7H-pyrrolo[2,3-d]pyrimidin-4-yl)-1H-pyrazol-1-yl]cyclobutyl}acetonitrile], for which the IC50 in assay [1] was less than 10 nM. For the same molecule, the JAK2/JAK1 in assay [2] is listed as greater than 10.
`C[C@@H](CO)NCc1cc(OC2CCN([C@H]3C[C@](CC#N)(n4cc(-c5ncnc6[nH]ccc56)cn4)C3)CC2)nc(C(F)(F)F)c1` [Compound 23, {trans-3-(4-{[4-({[(1S)-2-hydroxy-1-methylethyl]amino}methyl)-6-(trifluoromethyl)pyridin-2-yl]oxy}piperidin-1-yl)-1-[4-(7H-pyrrolo[2,3-d]pyrimidin-4-yl)-1H-pyrazol-1-yl]cyclobutyl}acetonitrile] came in with an IC50 in assay [1] of less than 10 nM. The JAK2/JAK1 in assay [2] was greater than 10.
Turning to `N#CC[C@]1(n2cc(-c3ncnc4[nH]ccc34)cn2)C[C@H](N2CCC(Oc3cc(CN4CC(O)C4)cc(C(F)(F)F)n3)CC2)C1` [Compound 11, {trans-3-(4-{[4-[(3-hydroxyazetidin-1-yl)methyl]-6-(trifluoromethyl)pyridin-2-yl]oxy}piperidin-1-yl)-1-[4-(7H-pyrrolo[2,3-d]pyrimidin-4-yl)-1H-pyrazol-1-yl]cyclobutyl}acetonitrile], the IC50 in assay [1] was less than 10 nM. The JAK2/JAK1 in assay [2] was greater than 10.
Molecule `N#CCC(CN1CCN(C(=O)c2ccc(C#N)cc2F)CC1)n1cc(-c2ncnc3[nH]ccc23)cn1` (stereo not drawn) [Compound 8, 4-[(4-{3-cyano-2-[4-(7H-pyrrolo[2,3-d]pyrimidin-4-yl)-1H-pyrazol-1-yl]propyl}piperazin-1-yl)carbonyl]-3-fluorobenzonitrile] gave an IC50 in assay [1] of less than 10 nM. Moreover, the JAK2/JAK1 in assay [2] is greater than 10.
Taken in the same sequence, the figures for `N#CCC1(n2cc(-c3ncnc4[nH]ccc34)cn2)CN([C@H]2CC[C@@H](Oc3cc(CN4CC[C@H](O)C4)cc(C(F)(F)F)n3)CC2)C1` [Compound 22, {1-(cis-4-{[4-{[(3S)-3-hydroxypyrrolidin-1-yl]methyl}-6-(trifluoromethyl)pyridin-2-yl]oxy}cyclohexyl)-3-[4-(7H-pyrrolo[2,3-d]pyrimidin-4-yl)-1H-pyrazol-1-yl]azetidin-3-yl}acetonitrile] were less than 10 nM and greater than 10.
As to `C[C@@H](O)c1nc2cnc3ccsc3c2n1[C@H]1CC[C@H](CC#N)OC1` [Compound 5, ((2R,5S)-5-{2-[(1R)-1-hydroxyethyl]-1H-imidazo[4,5-d]thieno[3,2-b]pyridin-1-yl}tetrahydro-2H-pyran-2-yl)acetonitrile], the IC50 in assay [1] was less than 100 nM. For the same molecule, the JAK2/JAK1 in assay [2] is recorded as greater than 10.
For the molecule `C[C@H](O)CNCc1cc(OC2CCN([C@H]3C[C@](CC#N)(n4cc(-c5ncnc6[nH]ccc56)cn4)C3)CC2)nc(C(F)(F)F)c1` [Compound 25, {trans-3-(4-{[4-({[(2S)-2-hydroxypropyl]amino}methyl)-6-(trifluoromethyl)pyridin-2-yl]oxy}piperidin-1-yl)-1-[4-(7H-pyrrolo[2,3-d]pyrimidin-4-yl)-1H-pyrazol-1-yl]cyclobutyl}acetonitrile], the IC50 in assay [1] was less than 10 nM. Further, in assay [2], the JAK2/JAK1 is listed as greater than 10.
Taken in the same sequence, the figures for `N#CC[C@]1(n2cc(-c3ncnc4[nH]ccc34)cn2)C[C@H](N2CCC(Oc3cc(CCO)cc(C(F)(F)F)n3)CC2)C1` [Compound 26, {trans-3-(4-{[4-(2-hydroxyethyl)-6-(trifluoromethyl)pyridin-2-yl]oxy}piperidin-1-yl)-1-[4-(7H-pyrrolo[2,3-d]pyrimidin-4-yl)-1H-pyrazol-1-yl]cyclobutyl}acetonitrile] were less than 10 nM and greater than 10.
`N#CC[C@]1(n2cc(-c3ncnc4[nH]ccc34)cn2)C[C@H](N2CCC(Oc3cc(CN4CCC[C@H]4CO)cc(C(F)(F)F)n3)CC2)C1` [Compound 12, {trans-3-(4-{[4-{[(2S)-2-(hydroxymethyl)pyrrolidin-1-yl]methyl}-6-(trifluoromethyl)pyridin-2-yl]oxy}piperidin-1-yl)-1-[4-(7H-pyrrolo[2,3-d]pyrimidin-4-yl)-1H-pyrazol-1-yl]cyclobutyl}acetonitrile] returned a half-inhibitory concentration (IC50) in assay [1] of less than 10 nM. For the same molecule, the JAK2/JAK1 in assay [2] was greater than 10.
